In patent publication US8133847B2, “Pyrido[2,3-B]pyrazine derivatives useful as herbicidal compounds” (Syngenta Limited, priority 2006, dated 2012):

Columns and labels:
Assay type in all cases: in vivo
[1] = test system: test plants (a variety of test species); test: Example B2 herbicidal action, post-emergence, pots in glasshouse; details: evaluated after 13 days, 100=total damage to plant, 0=no damage to plant
Protocol: (§1) Seeds of a variety of test species were sown in standard soil in pots. After 8 days cultivation (post-emergence) under controlled conditions in a glasshouse (at 24/16° C., day/night; 14 hours light; 65% humidity), the plants were sprayed with an aqueous spray solution derived from the formulation of the technical active ingredient in acetone/water (50:50) solution containing 0.5% Tween 20 (polyoxyethylene sorbitan monolaurate, CAS RN 9005-64-5). The test plants were then grown in a glasshouse under controlled conditions in a glasshouse (at 24/16° C., day/night; 14 hours light; 65% humidity) and watered twice daily. After 13 days, the test was evaluated (100=total damage to plant; 0=no damage to plant).

[2] = test system: Alopecurus myosuroides (ALOMY); test: Example B3 herbicidal action, post-emergence; details: 1000 g/ha, after 13 days, 100=total damage to plant, 0=no damage to plant
Protocol: (§2) Seeds of a variety of test species were sown in sterilised compost in small pots. After cultivation for seven days (post-emergence) in controlled conditions in the glasshouse (at 24/16° C., day/night; 14 hours light; 65% humidity) the plants were sprayed with 1 mg of the active ingredient, formulated in 2.5 ml acetone/water (50:50) solution, which is equivalent to 1000 g/ha. Once the foliage was dry, the pots were kept in the glasshouse (at 24/16° C., day/night; 14 hours light; 65% humidity), and were watered twice daily. After 13 days the test was evaluated (100=total damage to plant, 0=no damage to plant).

[3] = test system: Amaranthus retroflexus (AMARE); test: Example B3 herbicidal action, post-emergence; details: 1000 g/ha, after 13 days, 100=total damage to plant, 0=no damage to plant
Protocol: as §2

[4] = test system: Chenopodium album (CHEAL); test: Example B3 herbicidal action, post-emergence; details: 1000 g/ha, after 13 days, 100=total damage to plant, 0=no damage to plant
Protocol: as §2

[5] = test system: Digitaria sanguinalis (DIGSA); test: Example B3 herbicidal action, post-emergence; details: 1000 g/ha, after 13 days, 100=total damage to plant, 0=no damage to plant
Protocol: as §2

[6] = test system: Amaranthus retroflexus (AMARE); test: Example B2 herbicidal action, post-emergence, pots in glasshouse; details: Application post-emergence, evaluated after 13 days (100=total damage to plant; 0=no damage to plant)
Protocol: as §1

[7] = test system: Echinochloa crusgalli (ECHCG); test: as above; details: Application post-emergence, evaluated after 13 days (100=total damage to plant; 0=no damage to plant)
Protocol: as §1

[8] = test system: Ipomea hederaceae (IPOHE); test: as above; details: Application post-emergence, evaluated after 13 days (100=total damage to plant; 0=no damage to plant)
Protocol: as §1

Setaria faberi (SETFA) = test: as above; details: Application post-emergence, evaluated after 13 days (100=total damage to plant; 0=no damage to plant)
Protocol: as §1

Solanum nigrum (SOLNI) = test: as above; details: Application post-emergence, evaluated after 13 days
Protocol: as §1

## O=c1[nH]c2nccnc2c(O)c1-c1ccccc1 [Compound A22]
[1]
  damage to the test plants: no damage

## COc1cccc(-c2c(O)c3nccnc3[nH]c2=O)c1OC [Compound A41]
[2]
  damage to plant, Alopecurus myosuroides (ALOMY): 3
[3]
  damage to plant, Amaranthus retroflexus (AMARE): 0
[4]
  damage to plant, Chenopodium album (CHEAL): 6
[5]
  damage to plant, Digitaria sanguinalis (DIGSA): 6

## O=c1[nH]c2nccnc2c(O)c1-c1ccc(C(F)(F)F)cc1Br [Compound A43]
[2]
  damage to plant, Alopecurus myosuroides (ALOMY): 0
[3]
  damage to plant, Amaranthus retroflexus (AMARE): 7
[4]
  damage to plant, Chenopodium album (CHEAL): 8
[5]
  damage to plant, Digitaria sanguinalis (DIGSA): 0

## CC(C)(C)C(=O)Oc1c(-c2cc(F)c(Cl)cc2Cl)c(=O)[nH]c2nccnc12 [Compound B48]
[1]
  damage to the test plants: no damage

## CC(C)(C)C(=O)Oc1c(-c2ccc(C(F)(F)F)cc2Br)c(=O)[nH]c2nccnc12 [Compound B54]
[2]
  damage to plant, Alopecurus myosuroides (ALOMY): 0
[3]
  damage to plant, Amaranthus retroflexus (AMARE): 3
[4]
  damage to plant, Chenopodium album (CHEAL): 8
[5]
  damage to plant, Digitaria sanguinalis (DIGSA): 0

## CC(=O)Oc1c(-c2ccc(Cl)cc2Cl)c(=O)n(C(C)C)c2nccnc12 [Compound C7]
[2]
  damage to plant, Alopecurus myosuroides (ALOMY): 0
[3]
  damage to plant, Amaranthus retroflexus (AMARE): 9
[4]
  damage to plant, Chenopodium album (CHEAL): 7
[5]
  damage to plant, Digitaria sanguinalis (DIGSA): 3

## CCn1c(=O)c(-c2c(Cl)ccc(Cl)c2Cl)c(OC(=O)C(C)C)c2nccnc21 [Compound C107]
[2]
  damage to plant, Alopecurus myosuroides (ALOMY): 0
[3]
  damage to plant, Amaranthus retroflexus (AMARE): 10
[4]
  damage to plant, Chenopodium album (CHEAL): 10
[5]
  damage to plant, Digitaria sanguinalis (DIGSA): 2

## CCn1c(=O)c(-c2cccc(C(F)(F)F)c2Cl)c(OC(=O)C(C)(C)C)c2nccnc21 [Compound C132]
[2]
  damage to plant, Alopecurus myosuroides (ALOMY): 0
[3]
  damage to plant, Amaranthus retroflexus (AMARE): 10
[4]
  damage to plant, Chenopodium album (CHEAL): 8
[5]
  damage to plant, Digitaria sanguinalis (DIGSA): 0

## Cn1c(=O)c(-c2ccccc2)c(OC(=O)C(C)(C)C)c2nccnc21 [Compound C137]
[6]
  damage to plant, Amaranthus retroflexus (AMARE): 9
[7]
  damage to plant, Echinochloa crusgalli (ECHCG): 0
[8]
  damage to plant, Ipomea hederaceae (IPOHE): 5
Setaria faberi (SETFA)
  damage to plant, Setaria faberi (SETFA): 0
Solanum nigrum (SOLNI)
  damage to plant, Solanum nigrum (SOLNI): 0
[1]
  damage to the test plants: no damage

## CCn1c(=O)c(-c2ccc(C(F)(F)F)cc2[N+](=O)[O-])c(OC(=O)C(C)(C)C)c2nccnc21 [Compound C141]
[2]
  damage to plant, Alopecurus myosuroides (ALOMY): 0
[3]
  damage to plant, Amaranthus retroflexus (AMARE): 10
[4]
  damage to plant, Chenopodium album (CHEAL): 7
[5]
  damage to plant, Digitaria sanguinalis (DIGSA): 0

## CCn1c(=O)c(-c2cc(-c3ccc(Cl)cc3)ccc2C)c(OC(=O)C(C)C)c2nccnc21 [Compound C156]
[2]
  damage to plant, Alopecurus myosuroides (ALOMY): 8
[3]
  damage to plant, Amaranthus retroflexus (AMARE): 0
[4]
  damage to plant, Chenopodium album (CHEAL): 0
[5]
  damage to plant, Digitaria sanguinalis (DIGSA): 3

## Cn1c(=O)c(-c2c(F)c([N+](=O)[O-])cc(F)c2Cl)c(OC(=O)C(C)(C)C)c2nccnc21 [Compound C157]
[2]
  damage to plant, Alopecurus myosuroides (ALOMY): 0
[3]
  damage to plant, Amaranthus retroflexus (AMARE): 6
[4]
  damage to plant, Chenopodium album (CHEAL): 8
[5]
  damage to plant, Digitaria sanguinalis (DIGSA): 0

## CCn1c(=O)c(-c2c(F)c([N+](=O)[O-])cc(F)c2Cl)c(OC(=O)C(C)(C)C)c2nccnc21 [Compound C158]
[2]
  damage to plant, Alopecurus myosuroides (ALOMY): 0
[3]
  damage to plant, Amaranthus retroflexus (AMARE): 9
[4]
  damage to plant, Chenopodium album (CHEAL): 10
[5]
  damage to plant, Digitaria sanguinalis (DIGSA): 0

## Cc1cccc([N+](=O)[O-])c1-c1c(OC(=O)C(C)(C)C)c2nccnc2n(C)c1=O [Compound C161]
[2]
  damage to plant, Alopecurus myosuroides (ALOMY): 0
[3]
  damage to plant, Amaranthus retroflexus (AMARE): 6
[4]
  damage to plant, Chenopodium album (CHEAL): 2
[5]
  damage to plant, Digitaria sanguinalis (DIGSA): 5

## CC(C)C(=O)Oc1c(-c2ccccc2OC(F)F)c(=O)n(C)c2nccnc12 [Compound C164]
[6]
  damage to plant, Amaranthus retroflexus (AMARE): 9
[7]
  damage to plant, Echinochloa crusgalli (ECHCG): 3
[8]
  damage to plant, Ipomea hederaceae (IPOHE): 8
Setaria faberi (SETFA)
  damage to plant, Setaria faberi (SETFA): 4
Solanum nigrum (SOLNI)
  damage to plant, Solanum nigrum (SOLNI): 8

## CCn1c(=O)c(-c2ccccc2OC(F)F)c(OC(=O)C(C)C)c2nccnc21 [Compound C165]
[6]
  damage to plant, Amaranthus retroflexus (AMARE): 9
[7]
  damage to plant, Echinochloa crusgalli (ECHCG): 1
[8]
  damage to plant, Ipomea hederaceae (IPOHE): 7
Setaria faberi (SETFA)
  damage to plant, Setaria faberi (SETFA): 2
Solanum nigrum (SOLNI)
  damage to plant, Solanum nigrum (SOLNI): 10

## CCn1c(=O)c(-c2cc(OC(F)(F)F)ccc2OC)c(OC(=O)C(C)(C)C)c2nccnc21 [Compound C167]
[6]
  damage to plant, Amaranthus retroflexus (AMARE): 10
[7]
  damage to plant, Echinochloa crusgalli (ECHCG): 5
[8]
  damage to plant, Ipomea hederaceae (IPOHE): 5
Setaria faberi (SETFA)
  damage to plant, Setaria faberi (SETFA): 2
Solanum nigrum (SOLNI)
  damage to plant, Solanum nigrum (SOLNI): 9

## Cn1c(=O)c(-c2ccccc2OC(F)F)c(OC(=O)C(C)(C)C)c2nccnc21 [Compound C168]
[6]
  damage to plant, Amaranthus retroflexus (AMARE): 10
[7]
  damage to plant, Echinochloa crusgalli (ECHCG): 3
[8]
  damage to plant, Ipomea hederaceae (IPOHE): 5
Setaria faberi (SETFA)
  damage to plant, Setaria faberi (SETFA): 2
Solanum nigrum (SOLNI)
  damage to plant, Solanum nigrum (SOLNI): 8

## CCn1c(=O)c(-c2ccccc2OC(F)F)c(OC(=O)C(C)(C)C)c2nccnc21 [Compound C169]
[6]
  damage to plant, Amaranthus retroflexus (AMARE): 9
[7]
  damage to plant, Echinochloa crusgalli (ECHCG): 0
[8]
  damage to plant, Ipomea hederaceae (IPOHE): 7
Setaria faberi (SETFA)
  damage to plant, Setaria faberi (SETFA): 0
Solanum nigrum (SOLNI)
  damage to plant, Solanum nigrum (SOLNI): 9

## Cc1cnc2c(OC(=O)C(C)(C)C)c(-c3c(F)ccc(F)c3Cl)c(=O)n(C)c2n1 [Compound C170]
[6]
  damage to plant, Amaranthus retroflexus (AMARE): 8
[7]
  damage to plant, Echinochloa crusgalli (ECHCG): 8
[8]
  damage to plant, Ipomea hederaceae (IPOHE): 4
Setaria faberi (SETFA)
  damage to plant, Setaria faberi (SETFA): 7
Solanum nigrum (SOLNI)
  damage to plant, Solanum nigrum (SOLNI): 6

## Cc1cc(C)c(-c2c(O)c3nccnc3n(C)c2=O)c(C)c1 [Compound D7]
[6]
  damage to plant, Amaranthus retroflexus (AMARE): 10
[7]
  damage to plant, Echinochloa crusgalli (ECHCG): 10
[8]
  damage to plant, Ipomea hederaceae (IPOHE): 9
Setaria faberi (SETFA)
  damage to plant, Setaria faberi (SETFA): 10
Solanum nigrum (SOLNI)
  damage to plant, Solanum nigrum (SOLNI): 10

## CCn1c(=O)c(-c2c(Cl)cc(OC(F)(F)F)cc2Cl)c(O)c2nccnc21 [Compound D11]
[6]
  damage to plant, Amaranthus retroflexus (AMARE): 10
[7]
  damage to plant, Echinochloa crusgalli (ECHCG): 10
[8]
  damage to plant, Ipomea hederaceae (IPOHE): 10
Setaria faberi (SETFA)
  damage to plant, Setaria faberi (SETFA): 9
Solanum nigrum (SOLNI)
  damage to plant, Solanum nigrum (SOLNI): 10
